Data on four molecules can be found in US20210038577A1, “THIOREDOXIN REDUCTASE INHIBITORS FOR USE IN THE TREATMENT OF CANCER” (Cinda Pharma AB, priority 2018, published 2021).

Assay [1] concerns NB-4 (a leukaemia cell line). Kind of assay: MTT cell viability assay, NB-4. Format: cell-based. Particulars: 72 hrs. Here is the method:
(§1) MDA-MB-453 (ATCC HTB-131) cells were grown in media with sodium pyruvate. MDA-MB-231 cells (ATCC HTB-26) were grown in DMEM media or L-15 supplemented with Glutamax (1×). U87-MG (ATCC HTB-14) and MDA-MB-468 (ATCC HTB-132) cells were cultured in DMEM supplemented with Glutamax (1×). NB-4 (DSMZ ACC-207) cells were cultured in RPMI 1640.
(§2) Breast cancer and glioblastoma cell lines were plated 4000 cells/well in 96-well plates in the presence of 10% FBS media. The following day cells were treated with various concentrations of the example compounds (0.1% DMSO final) and incubated for 72 hrs. After the incubation an MTT assay was performed to access cell viability. Percent of viability was determined using DMSO vehicle and no cell (blank) controls.

The subject of assay [2] is MDA-MB-231 (a breast cancer cell line). Kind of assay: MTT cell viability assay, MDA-MB-231. Format: cell-based, human. Here is the method: as §1, §2
A general note: Tetrazolium assays rely on reduction of a dye to a coloured formazan, in cell work by metabolically active cells.

The next assay has as its target T1, GR from baker's yeast (Saccharomyces cerevisiae, UniProt P41921).
T1 sequence (P41921 17-483 limits assumed): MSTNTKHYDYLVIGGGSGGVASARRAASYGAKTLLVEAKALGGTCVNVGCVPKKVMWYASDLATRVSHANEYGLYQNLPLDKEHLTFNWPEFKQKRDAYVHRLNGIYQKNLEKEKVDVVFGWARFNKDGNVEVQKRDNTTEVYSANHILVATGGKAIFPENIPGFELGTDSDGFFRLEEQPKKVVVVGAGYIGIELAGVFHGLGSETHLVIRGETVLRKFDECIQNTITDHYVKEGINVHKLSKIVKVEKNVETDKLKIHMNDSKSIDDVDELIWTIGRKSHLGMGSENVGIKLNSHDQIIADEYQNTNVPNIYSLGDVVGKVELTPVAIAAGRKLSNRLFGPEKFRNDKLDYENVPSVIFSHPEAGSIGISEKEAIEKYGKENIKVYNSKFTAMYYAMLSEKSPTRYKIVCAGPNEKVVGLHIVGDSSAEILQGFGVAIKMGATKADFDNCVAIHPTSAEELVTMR
Kind of assay: Glutathione reductase (GR) activity assay. Format: biochemical. Particulars: Molar concentration.

The test system of a further assay is Trx in MDA-MB-231 cells. Briefly: Intracellular Trx levels by ELISA in MDA-MB-231 tumor cells. Format: cell-based, human. The note with it: for intracellular Trx during treatment: 0.1 μM, 1 μM and 10 μM, over 96 hours; for total intracellular Trx at end of experiment versus untreated cell cultures: end of experiment (96 hours). Here is the method: The human mammary carcinoma cell line MDA-MB-231 was obtained from the American Type Culture Collection (ATCC; Manassas, Va.) and cultured in Leibovitz's L-15 medium (Thermo Fisher Scientific, USA) supplemented with 10% (v/v) heat-inactivated fetal bovine serum (Thermo Fisher Scientific, USA), 10 mM HERBS (Sigma), 25 mM sodium bicarbonate (Sigma), 1× Glutamax (Sigma), 100 IU/mL penicillin and 100 μg/ml streptomycin (Sigma) in a 5% CO2 atmosphere at 37° C. Briefly, cells were seeded at 7500 cells/well in 96-well plates. After 24 h, the cells were treated either with different concentrations of test compounds or DMSO (0.5%; vehicle control) respectively and further incubated at 37° C. in a CO2 incubator. Culture supernatants were collected at different time points, like, immediately after cell plating (−24 h), 0 h (at the time of compound addition), and 1 h, 6 h, 12 h, 24 h, 48 h, 72 h and 96 h following compound addition. Subsequently, cells were lysed from corresponding wells with 0.1% Triton X-100 and the lysates were collected. Trx levels were measured in both the culture supernatants and cell lysates by ELISA using TXN (Human) ELISA Kit [Abnova; Cat no: KA0535] following manufacturer instruction. A standard curve was prepared using different concentrations of the Trx standard (provided in the kit) with the help of GraphPad Prism software (version 5.0; La Jolla, Calif., USA). Trx concentrations for the unknown samples were calculated from the standard curve. The data were expressed as the means of three replicates.
Background: An ELISA detects its analyte on a solid surface through an enzyme-linked reagent.

Experimental for GR from baker's yeast: GR activity was determined incubating compounds at various concentrations with GR from baker's yeast and 250 μM NADPH for 15 minutes, whereupon 10 mM oxidized glutathione (GSSG) was added to each well and NADPH consumption was followed at OD340. Activity was determined following the consumption of NADPH over time and normalized to DMSO only (Vehicle) and GR lacking (blank) controls.

In general, IC50 refers to the midpoint of a concentration-inhibition curve. The low end stands for inhibition by little substance, the high end for a need for much substance. For `NC(=O)c1ccc(I)c([N+](=O)[O-])c1` [Iniparib, 4-Iodo-3-nitrobenzamide, reference compound], the IC50 is 57.6 µM in assay [1]; over 33 µM in assay [2] (Homo sapiens, MDA-MB-231, 72 h); over 30 µM on GR from baker's yeast. The “intracellular Trx levels in comparison to untreated cells” value with Trx in MDA-MB-231 cells (e.g. at the 96 h time point) is “reduced”.

As for `COc1ccc([N+](=O)[O-])c(S(=O)(=O)c2ccc(Cl)cc2)n1` [OT-1000, 2-((4-Chlorophenyl)sulfonyl)-6-methoxy-3-nitropyridine], the IC50 is 1.2 µM in assay [1]; 3.14 µM in assay [2] (Homo sapiens, MDA-MB-231, 72 h); over 30 µM on GR from baker's yeast. The “intracellular Trx during treatment” value in the assay on Trx in MDA-MB-231 cells was “appears to decline”. The “total intracellular Trx at end of experiment versus untreated cell cultures” value in the assay on Trx in MDA-MB-231 cells is “lower”.

`CCCCCCCCS(=O)(=O)c1nc(OC)ccc1[N+](=O)[O-]` [OT-1096, 6-methoxy-3-nitro-2-(octylsulfonyl)pyridine] came in with an IC50 in assay [1] of 3.22 µM. Also, the IC50 against GR from baker's yeast was over 30 µM. In addition, in the assay on Trx in MDA-MB-231 cells (at 10 μM), the “intracellular levels of Trx compared with control cells” value is listed as “reduced” and the “time after which intracellular Trx is reduced compared with control cells” value was 24 h.

As to `CCS(=O)(=O)c1nc(OC)ccc1[N+](=O)[O-]` [OT-1129, 2-(ethylsulfonyl)-6-methoxy-3-nitropyridine], the figures for the IC50 (in assay [1]; in assay [2] (72 hrs); on GR from baker's yeast) were 1.12 µM, 4.88 µM and over 30 µM, respectively. Besides, the “intracellular Trx during treatment” value with Trx in MDA-MB-231 cells is recorded as “appears to decline”. Also, the “total intracellular Trx at end of experiment versus untreated cell cultures” value in the assay on Trx in MDA-MB-231 cells is “lower”.
